Numbering of substitutions follows the chain as printed.
Columns and labels:
[1] = target: T1, NaDC1 (Homo sapiens, UniProt Q13183); assay: CD thermal melting at […] nm; type: binding; set-up: gene SLC13A2; full length, homodimer; N-terminal FLAG purified from HEK293F (structures, natural variant I550V); GFP and FLAG tagged in HEK293T for currents; conditions: absolute Tm in presence of citrate, not a shift; whether WT carries I550V not stated
T1 sequence (Q13183 1-592): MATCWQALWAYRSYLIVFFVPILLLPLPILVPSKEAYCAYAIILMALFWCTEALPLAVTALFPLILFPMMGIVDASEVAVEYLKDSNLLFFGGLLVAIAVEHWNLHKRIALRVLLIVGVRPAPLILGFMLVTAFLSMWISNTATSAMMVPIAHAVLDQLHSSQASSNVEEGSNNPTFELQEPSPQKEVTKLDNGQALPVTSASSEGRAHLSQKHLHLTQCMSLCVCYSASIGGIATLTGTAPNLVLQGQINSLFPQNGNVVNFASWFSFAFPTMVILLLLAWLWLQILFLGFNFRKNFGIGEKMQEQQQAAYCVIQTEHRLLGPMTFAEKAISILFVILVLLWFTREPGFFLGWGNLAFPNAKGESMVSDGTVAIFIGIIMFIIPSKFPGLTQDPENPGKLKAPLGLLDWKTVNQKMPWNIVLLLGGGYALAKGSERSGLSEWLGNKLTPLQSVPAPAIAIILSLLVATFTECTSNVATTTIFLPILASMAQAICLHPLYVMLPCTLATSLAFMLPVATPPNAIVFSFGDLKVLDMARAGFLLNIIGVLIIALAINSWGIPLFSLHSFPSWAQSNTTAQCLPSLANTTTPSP

[2] = target: T2, NaDC1 (Homo sapiens, UniProt Q13183, R108A); assay: whole-cell patch clamp, transfected HEK293T; type: cell-based; conditions: citrate-induced current; 140 mM NaCl bath, pH 7.4
T2 construct: gene SLC13A2; full length, homodimer; N-terminal FLAG purified from HEK293F (structures, natural variant I550V); GFP and FLAG tagged in HEK293T for currents
T2 sequence (Q13183 1-592 R108A): T1 sequence (Q13183 1-592) with R108A

[3] = target: T3, NaDC1 (Homo sapiens, UniProt Q13183, T142A); assay: CD thermal melting at […] nm; type: binding; conditions: absolute Tm in presence of citrate, not a shift
T3 construct: gene SLC13A2; full length, homodimer; N-terminal FLAG purified from HEK293F (structures, natural variant I550V); GFP and FLAG tagged in HEK293T for currents
T3 sequence (Q13183 1-592 T142A): T1 sequence (Q13183 1-592) with T142A

[4] = target: T1, NaDC1; assay: whole-cell patch clamp, transfected HEK293T; type: cell-based; set-up: gene SLC13A2; full length, homodimer; GFP and FLAG tagged in HEK293T for currents; conditions: gradient of citrate concentrations; 140 mM NaCl bath, pH 7.4

- Tm [1]: 62.9 ± 0.3 °C
- Tm [3]: 56.4 ± 0.3 °C
SMILES: O=C(O)CC(O)(CC(=O)O)C(=O)O [citrate]
- whole-cell patch clamp, transfected HEK293T [2]: The R108A mutant substantially reduced the citrate-induced current than WT in NaDC1
- whole-cell patch clamp, transfected HEK293T [4]: wild-type (WT) NaDC1 is indeed capable of transporting citrate

Reference: publication PMC10980263, “Cryo-EM structures of the human NaS1 and NaDC1 transporters revealed the elevator transport and allosteric regulation mechanism” (Science Advances, 2024)
